Measured values reported in PubChem BioAssay (NCI).
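Protocol summary: plate cells (96-well), add compound at 5 concentrations, incubate 48 h, interpolate endpoints linearly. GI50 is the concentration that inhibits growth by half. TGI is the concentration that stops growth completely.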

How the values were obtained:
Test in all cases: NCI-60 cell line screen, 48 h
[1] = test system: IGROV1 ovarian
[2] = test system: MOLT-4 leukemia
[3] = test system: HT29 colon
[4] = test system: RXF 393 renal
[5] = test system: PC-3 prostate
[6] = test system: COLO 205 colon
[7] = test system: SF-295 CNS
[8] = test system: SW-620 colon
[9] = test system: SK-MEL-2 melanoma
[10] = test system: UACC-62 melanoma
[11] = test system: SF-268 CNS
[12] = test system: HL-60(TB) leukemia
[13] = test system: MCF7 breast
[14] = test system: SF-539 CNS
[15] = test system: MDA-MB-231 breast
[16] = test system: SK-MEL-5 melanoma
[17] = test system: UACC-257 melanoma
[18] = test system: OVCAR-8 ovarian
[19] = test system: SK-OV-3 ovarian
[20] = test system: MDA-N
[21] = test system: HCT-116 colon
[22] = test system: MDA-MB-435
[23] = test system: NCI-H460 lung
[24] = test system: BT-549 breast
[25] = test system: HCC-2998 colon
[26] = test system: OVCAR-4 ovarian
[27] = test system: SK-MEL-28 melanoma
[28] = test system: UO-31 renal
[29] = test system: SNB-19 CNS
[30] = test system: SN12C renal
[31] = test system: LOX IMVI melanoma
[32] = test system: HCT-15 colon
[33] = test system: ACHN renal
[34] = test system: HOP-92 NSCLC
[35] = test system: TK-10 renal
[36] = test system: NCI/ADR-RES ovarian
[37] = test system: KM12 colon
[38] = test system: HS 578T breast
[39] = test system: 786-0 renal
[40] = test system: CAKI-1 renal
[41] = test system: EKVX NSCLC
[42] = test system: DU-145 prostate
[43] = test system: NCI-H226 lung
[44] = test system: CCRF-CEM leukemia
[45] = test system: U251 CNS
[46] = test system: A549 NSCLC
[47] = test system: NCI-H522 lung
[48] = test system: NCI-H23 lung
[49] = test system: SNB-75 CNS
[50] = test system: HOP-62 NSCLC
[51] = test system: T-47D breast
[52] = test system: RPMI-8226 leukemia
[53] = test system: OVCAR-5 ovarian
[54] = test system: OVCAR-3 ovarian
[55] = test system: M14 melanoma
[56] = test system: A498 renal
[57] = test system: K-562 leukemia
[58] = test system: MALME-3M melanoma
[59] = test system: SR leukemia

For `Cc1nc(C(N)=S)sc1C(/C=C/c1ccc(Cl)c(Cl)c1)=N/NC(C)(C)C`, the TGI [1] was > 100 µM, the TGI [2] was 80.5 µM and the TGI [3] was > 100 µM. The TGI [4] was > 100 µM, the TGI [5] was > 100 µM and the TGI [6] was > 100 µM. The TGI [7] was > 100 µM, the TGI [8] was > 100 µM and the TGI [9] was > 100 µM. The TGI [10] was > 100 µM, the TGI [11] was > 100 µM and the TGI [12] was > 100 µM. For the same molecule, the TGI [13] was > 100 µM, the TGI [14] was > 100 µM and the TGI [15] was > 100 µM. For the same molecule, the TGI [16] was > 100 µM, the TGI [17] was > 100 µM and the TGI [18] was > 100 µM. For the same molecule, the TGI [19] was > 100 µM, the TGI [20] was > 100 µM and the TGI [21] was > 100 µM. For the same molecule, the TGI [22] was > 100 µM, the TGI [23] was > 100 µM and the TGI [24] was > 100 µM. The TGI [25] was > 100 µM, the TGI [26] was > 100 µM and the TGI [27] was > 100 µM. For the same molecule, the TGI [28] was > 100 µM, the TGI [29] was > 100 µM and the TGI [30] was > 100 µM. For the same molecule, the TGI [31] was > 100 µM, the TGI [32] was > 100 µM and the TGI [33] was > 100 µM. For the same molecule, the TGI [34] was > 100 µM, the TGI [35] was > 100 µM and the TGI [36] was > 100 µM. The TGI [37] was > 100 µM, the TGI [38] was > 100 µM and the TGI [39] was > 100 µM. The TGI [40] was > 100 µM, the TGI [41] was > 100 µM and the TGI [42] was > 100 µM. For the same molecule, the TGI [43] was > 100 µM, the TGI [44] was > 100 µM and the TGI [45] was > 100 µM. For the same molecule, the TGI [46] was > 100 µM, the TGI [47] was > 100 µM and the TGI [48] was > 100 µM. The TGI [49] was > 100 µM.
`Nc1ccccc1NC(=O)c1ccc(CCCC(=O)Nc2ccc(C3CC3N)cc2)cc1` (configuration not stated) was tested, and the GI50 [1] was 4.24 µM, the TGI [1] was > 100 µM and the GI50 [50] was 2.01 µM. For the same molecule, the TGI [50] was 20.7 µM, the GI50 [2] was 1.87 µM and the TGI [2] was > 100 µM. For the same molecule, the GI50 [3] was 0.995 µM, the TGI [3] was > 100 µM and the GI50 [4] was 1.65 µM. For the same molecule, the TGI [4] was 4.1 µM, the GI50 [51] was 0.562 µM and the TGI [51] was > 100 µM. For the same molecule, the GI50 [5] was 2.32 µM, the TGI [5] was 95.3 µM and the GI50 [6] was 0.765 µM. For the same molecule, the TGI [6] was 2.89 µM, the GI50 [7] was 1.96 µM and the TGI [7] was 9.43 µM. For the same molecule, the GI50 [8] was 1.08 µM, the TGI [8] was 29.5 µM and the GI50 [9] was 1.55 µM. It also gave a TGI [9] of 7.26 µM, a GI50 [10] of 0.573 µM and a TGI [10] of 3.03 µM. For the same molecule, the GI50 [11] was 1.83 µM, the TGI [11] was 23 µM and the GI50 [12] was 0.725 µM. For the same molecule, the TGI [12] was 65.2 µM, the GI50 [13] was 1.71 µM and the TGI [13] was > 100 µM. For the same molecule, the GI50 [14] was 0.972 µM, the TGI [14] was 70.9 µM and the GI50 [52] was 2.79 µM. The TGI [52] was 24.2 µM, the GI50 [15] was 2.77 µM and the TGI [15] was 48 µM. The GI50 [16] was 0.716 µM, the TGI [16] was 2.21 µM and the GI50 [18] was 1.32 µM. For the same molecule, the TGI [18] was > 100 µM, the GI50 [19] was 2.15 µM and the TGI [19] was 42.4 µM. The GI50 [21] was 0.375 µM, the TGI [21] was 16 µM and the GI50 [22] was 1.57 µM. The TGI [22] was 9.05 µM, the GI50 [23] was 2.63 µM and the TGI [23] was > 100 µM. For the same molecule, the GI50 [24] was 3.09 µM, the TGI [24] was 37.9 µM and the GI50 [25] was 1.72 µM. The TGI [25] was 5.65 µM, the GI50 [26] was 2.21 µM and the TGI [26] was 26.4 µM. It also gave a GI50 [27] of 1.31 µM, a TGI [27] of 11.3 µM and a GI50 [28] of 4.62 µM. It also gave a TGI [28] of 20.6 µM, a GI50 [53] of 0.925 µM and a TGI [53] of 37.6 µM. For the same molecule, the GI50 [29] was 3.81 µM, the TGI [29] was > 100 µM and the GI50 [54] was 1.91 µM. The TGI [54] was 11.3 µM, the GI50 [30] was 3.62 µM and the TGI [30] was > 100 µM. It also gave a GI50 [31] of 1.45 µM, a TGI [31] of 3.47 µM and a GI50 [32] of 18.8 µM. The TGI [32] was > 100 µM, the GI50 [55] was 2.01 µM and the TGI [55] was 15.4 µM. The GI50 [56] was 0.747 µM, the TGI [56] was 2.74 µM and the GI50 [33] was 4.3 µM. The TGI [33] was 33.5 µM, the GI50 [57] was 0.658 µM and the TGI [57] was > 100 µM. The GI50 [34] was 0.359 µM, the TGI [34] was 4.21 µM and the GI50 [58] was 0.559 µM. For the same molecule, the TGI [58] was 7.2 µM, the GI50 [35] was 0.36 µM and the TGI [35] was 26.8 µM. The GI50 [36] was 45.7 µM, the TGI [36] was > 100 µM and the GI50 [37] was 3.63 µM. The TGI [37] was > 100 µM, the GI50 [38] was 2.82 µM and the TGI [38] was > 100 µM. It also gave a GI50 [39] of 3.5 µM, a TGI [39] of 39.3 µM and a GI50 [40] of 2.46 µM. For the same molecule, the TGI [40] was 14.4 µM, the GI50 [41] was 4.47 µM and the TGI [41] was > 100 µM. For the same molecule, the GI50 [42] was 2.66 µM, the TGI [42] was 18.5 µM and the GI50 [43] was 1.85 µM. For the same molecule, the TGI [43] was 69.4 µM, the GI50 [44] was 2.63 µM and the TGI [44] was > 100 µM. The GI50 [45] was 1.34 µM, the TGI [45] was 4.06 µM and the GI50 [46] was 4.38 µM. The TGI [46] was > 100 µM, the GI50 [47] was 0.673 µM and the TGI [47] was 5.12 µM. For the same molecule, the GI50 [48] was 2.29 µM, the TGI [48] was 33.8 µM and the GI50 [59] was 0.738 µM. For the same molecule, the TGI [59] was > 100 µM, the GI50 [49] was 1.89 µM and the TGI [49] was 50.4 µM.
`O=[N+]([O-])c1ccc(/C=N/Nc2nnc3c4ccccc4c4ncccc4c3n2)o1` was tested, and the TGI [1] was > 10 µM, the TGI [50] was > 10 µM and the TGI [2] was > 10 µM. The TGI [3] was > 10 µM, the TGI [4] was > 10 µM and the TGI [51] was > 10 µM. The TGI [5] was > 10 µM, the TGI [6] was > 10 µM and the TGI [7] was > 10 µM. The TGI [8] was > 10 µM, the TGI [10] was > 10 µM and the TGI [11] was > 10 µM. The TGI [12] was > 10 µM, the TGI [13] was > 10 µM and the TGI [52] was > 10 µM. The TGI [15] was > 10 µM, the TGI [16] was > 10 µM and the TGI [17] was > 10 µM. For the same molecule, the TGI [18] was > 10 µM, the TGI [19] was > 10 µM and the TGI [20] was > 10 µM. The TGI [25] was > 10 µM, the TGI [27] was > 10 µM and the TGI [30] was > 10 µM. For the same molecule, the TGI [32] was > 10 µM, the TGI [55] was > 10 µM and the TGI [57] was > 10 µM. For the same molecule, the TGI [58] was > 10 µM, the TGI [35] was > 10 µM and the TGI [37] was > 10 µM. The TGI [39] was > 10 µM, the TGI [40] was > 10 µM and the TGI [41] was > 10 µM. The TGI [42] was > 10 µM, the TGI [44] was > 10 µM and the TGI [46] was > 10 µM. For the same molecule, the TGI [48] was > 10 µM, the TGI [59] was > 10 µM and the TGI [49] was > 10 µM.
